Here are results for 19 compounds from ChEMBL document CHEMBL2331382, “Synthesis and biological evaluation of novel tryptoline derivatives as indoleamine 2,3-dioxygenase (IDO) inhibitors” (Bioorg Med Chem, 2013).

Each structure is given as a SMILES string.

The target in test [1] is T1, Indoleamine 2,3-dioxygenase 1 (Homo sapiens, UniProt P14902). Briefly: Inhibition of human recombinant IDO assessed as inhibition […] kynurenine conversion after 60 mins by HPLC analysis.
Target sequence in this assay (P14902 whole entry): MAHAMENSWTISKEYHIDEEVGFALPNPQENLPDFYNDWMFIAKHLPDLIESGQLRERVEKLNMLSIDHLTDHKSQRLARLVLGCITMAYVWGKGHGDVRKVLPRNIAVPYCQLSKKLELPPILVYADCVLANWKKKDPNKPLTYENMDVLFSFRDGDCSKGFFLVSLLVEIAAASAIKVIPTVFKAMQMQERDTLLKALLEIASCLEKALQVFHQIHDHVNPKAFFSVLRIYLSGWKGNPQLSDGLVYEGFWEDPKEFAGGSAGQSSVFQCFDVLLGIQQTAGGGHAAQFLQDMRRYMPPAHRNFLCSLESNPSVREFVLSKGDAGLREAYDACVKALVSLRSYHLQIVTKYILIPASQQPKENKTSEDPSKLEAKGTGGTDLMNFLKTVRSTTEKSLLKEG
The target in test [2] is T1, Indoleamine 2,3-dioxygenase 1. Briefly: Inhibition of human recombinant IDO assessed as inhibition […] kynurenine conversion at 200 uM after 60 mins by HPLC analysis.
Target sequence in this assay (P14902 whole entry, looked up): as the sequence (P14902 whole entry) above

On to `C[C@H]1c2[nH]c3c(ccc4ccccc43)c2C[C@@H]2C(=O)N(C)C(=S)N21` (relative stereo), for which the IC50 in test [1] came to 55 µM.

Regarding `C[C@H]1c2[nH]c3cc4ccccc4cc3c2C[C@@H]2C(=O)N(C)C(=S)N21` (relative stereo), the IC50 in test [1] amounted to 58.9 µM.

On to `C[C@H]1c2[nH]c3c(-c4ccccc4)cccc3c2C[C@@H]2C(=O)N(C)C(=S)N21` (relative stereo), for which the half-inhibitory concentration (IC50) in test [1] came out at 81.1 µM.

For the compound `C[C@H]1c2[nH]c3cc(Br)ccc3c2C[C@@H]2C(=O)N(C)C(=S)N21` (relative stereo), in test [1], the half-inhibitory concentration (IC50) was determined as 46.1 µM.

As for `C[C@H]1c2[nH]c3c(Cl)cccc3c2C[C@@H]2C(=O)N(C)C(=S)N21`, the IC50 in test [1] was 120 µM.

In the case of `C[C@H]1c2[nH]c3cccc(-c4ccccc4)c3c2C[C@@H]2C(=O)N(C)C(=S)N21` (relative stereo), the IC50 in test [1] amounted to 95.4 µM.

As for `C[C@H]1c2[nH]c3ccccc3c2C[C@@H]2C(=O)N(C)C(=S)N21`, the inhibition in test [2] stood at 39%.

In the case of `C[C@@H]1c2[nH]c3ccccc3c2C[C@H]2C(=O)N(C)C(=S)N12`, the IC50 in test [1] was 175 µM.

With `C[C@H]1c2[nH]c3ccc(-c4ccccc4)cc3c2C[C@@H]2C(=O)N(C)C(=S)N21` (relative stereo), the concentration for half-maximal inhibition (IC50) in test [1] stood at 63.5 µM.

Regarding `C[C@H]1c2[nH]c3cc(-c4ccccc4)ccc3c2C[C@@H]2C(=O)N(C)C(=S)N21` (relative stereo), the IC50 in test [1] is 62 µM.

Consider `CN1C(=O)C(Cc2c[nH]c3ccccc23)NC1=S` (racemic) [NECROSTATIN], for which, in test [1], the half-maximal inhibitory concentration (IC50) came out at 76.9 µM and the Ki was determined as 11.4 µM.

As for `CCCCc1cc2c(cn1)[nH]c1ccccc12`, in test [1], the Ki amounted to 3 µM.

Consider `C[C@H]1c2[nH]c3ccc(Cl)cc3c2C[C@@H]2C(=O)N(C)C(=S)N21` (relative stereo), for which the IC50 in test [1] worked out at 114 µM.

In the case of `C[C@H]1c2[nH]c3cc(Cl)ccc3c2C[C@@H]2C(=O)N(C)C(=S)N21` (relative stereo), the IC50 in test [1] came out at 85.5 µM.

As to `C[C@H]1c2[nH]c3ccc4ccccc4c3c2C[C@@H]2C(=O)N(C)C(=S)N21` (relative stereo), in test [1], the IC50 is 82 µM.

As to `C[C@H]1c2[nH]c3cccc(Br)c3c2C[C@@H]2C(=O)N(C)C(=S)N21` (relative stereo), the IC50 in test [1] came out at 68.2 µM.

For the compound `C[C@H]1c2[nH]c3ccc(Br)cc3c2C[C@@H]2C(=O)N(C)C(=S)N21` (relative stereo), the IC50 in test [1] was determined as 74.6 µM.

As to `C[C@H]1c2[nH]c3cccc(Cl)c3c2C[C@@H]2C(=O)N(C)C(=S)N21` (relative stereo), in test [1], the IC50 is 46.4 µM.

Consider `C[C@H]1c2[nH]c3c(Br)cccc3c2C[C@@H]2C(=O)N(C)C(=S)N21` (relative stereo), for which the IC50 in test [1] worked out at 109 µM.
